Source: US11578343B2, “CAS9 proteins including ligand-dependent inteins” (President and Fellows of Harvard College, priority 2014, dated 2023)

Experiments:
Type in all cases: cell-based, human
genomic EGFP locus = assay: Genomic EGFP disruption in HEK293-GFP stable cells (loss of GFP by flow cytometry); settings: for Loss of GFP expression / nuclease activity, in words: with or without 1 μM 4-HT, FIG. 3c
Experimental: HEK293-GFP stable cells were transfected with the Cas9 expression plasmid, a gRNA (targeting Emerald GFP; Guilinger et al., Nature Biotechnology (2014)), and iRFP670 (transfection control), using Lipofectamine 2000. Twelve hours after transfection, media, either containing 4-HT (1 μM) or without 4-HT, was added.
Five days after transfection, cells were trypsinized and analyzed on a flow cytometer. Cells lacking GFP indicated genome modification. Cas9 variants that induced minimal genome modification in the absence of 4-HT but induce significant genome modification in the presence of 4-HT were deemed small-molecule-regulated variants in this Example.
Additionally, a time course was performed in which incubation with 4-HT was limited to 2, 4, 8, 12 or 24 hours, after which point the media was replaced.
We genetically inserted the 4-HT-dependent intein at each of fifteen positions in Cas9 (Cys80, Ala127, Thr146, Ser219, Thr333, Thr519, Cys574, Thr622, Ser701, Ala728, Thr995, Ser1006, Ser1154, Ser1159, and Ser1274), chosen to distribute the location of the intein across the structural domains of Cas9^23 (FIG. 3b and Example 1). Because intein splicing leaves behind a single Cys residue, the intein was inserted in place of one Cas9 amino acid in each of the 15 candidate constructs. In addition to replacing natural Cys amino acids, we also favored replacing Ala, Ser, or Thr residues to minimize the likelihood that the resulting Cys point mutation resulting from protein splicing would disrupt Cas9 activity. The 15 intein-Cas9 candidates were expressed in HEK293-GFP cells together with a sgRNA that targets the genomic EGFP locus in these cells. Twelve hours post-transfection, cells were treated with or without 1 μM 4-HT. Five days post-transfection, cells were analyzed on a flow cytometer for loss of GFP expression from Cas9-mediated EGFP cleavage and subsequent non-homologous end joining.
Modification of genomic GFP. HEK293-GFP stable cells (GenTarget), which constitutively express Emerald GFP, served as the reporter cell line. Cells were maintained in “full serum media”: Dulbecco's Modified Eagle's Media plus GlutaMax (Life Technologies) with 10% (vol/vol) FBS and penicillin/streptomycin (1×, Amresco). 5×10^4 cells were plated on 48-well collagen-coated Biocoat plates (Becton Dickinson). 16-18 h after plating, cells were transfected with Lipofectamine 2000 (Life Technologies) according to the manufacturer's protocol. Briefly, 1.5 μL of Lipofectamine 2000 was used to transfect 650 ng of total plasmid: 500 ng Cas9 expression plasmid, 125 ng sgRNA expression plasmid, and 25 ng near-infrared iRFP670 expressing plasmid (Addgene plasmid 45457)^26. 12 h after transfection, the media was replaced with full serum media, with or without 4-HT (1 μM, Sigma-Aldrich T176). The media was replaced again 3-4 days after transfection. Five days after transfection, cells were trypsinized and resuspended in full serum media and analyzed on a C6 flow cytometer (Accuri) with a 488-nm laser excitation and 520-nm filter with a 20-nm band pass. Transfections and flow cytometry measurements were performed in triplicate.

CLTA genomic site = assay: T7 Endonuclease I Surveyor assay of genomic modification; settings: FIG. 2
Experimental: (§1) The presence of two bands corresponding to smaller DNA fragments (the fragments are approximately the same size for EMX) indicates genomic modification.
(§2) 4-HT (1 μM) was added during transfection for +4-HT samples. 12 hours after transfection the media was replaced. 60 hours after transfection, cells were trypsinized and genomic DNA was isolated using the DNAdvance kit (Agencourt). […] PCR products were purified with a QIAquick PCR Purification Kit (Qiagen) and quantified with a Quant-iT PicoGreen dsDNA Kit (Life Technologies). 200 ng of purified PCR DNA was then combined with 2 μL of NEBuffer 2 (NEB) in a total volume of 19 μL and denatured then re-annealed with thermocycling at 95° C. for 5 min, 95-85° C. at 2° C./s, 85-20° C. at 0.2° C./s. The re-annealed DNA was incubated with 1 μL of T7 Endonuclease I (10 U/μL, NEB) at 37° C. for 15 min. 10 μL of 50% glycerol was added to the T7 Endonuclease reaction and 15 μL was analyzed on a 5% TBE 18-well Criterion PAGE gel (Bio-Rad) electrophoresed for 30 min at 200V and stained with EtBr for 15 min.

EMX genomic site = assay: as above; settings: FIG. 2
Experimental: as §1, §2

VEGF genomic site = assay: as above; settings: FIG. 2
Experimental: as §1, §2

HEK293-GFP stable cells = assay: Western blot analysis of intein splicing; settings: FIG. 6
Experimental: FIGS. 6A-6B. […] 12 h after transfection, cells were treated with or without 4-HT (1 μM). Cells were lysed and pooled from three technical replicates 4, 8, 12, or 24 h after 4-HT treatment. An anti-FLAG antibody (Sigma-Aldrich F1804) and an anti-mouse 800CW IRDye (LI-COR) were used to visualize the gel. Lanes 1 and 2 contain purified dCas9-VP64-3×FLAG protein and lysate from untransfected HEK293 cells, respectively.
Western blot analysis of intein splicing. HEK293-GFP stable cells were transfected with 500 ng Cas9 expression plasmid and 125 ng sgRNA expression plasmid. 12 h after transfection, the media was replaced with full serum media, with or without 4-HT (1 μM). Cells were lysed and pooled from three technical replicates 4, 8, 12, or 24 h after 4-HT treatment. Samples were run on a Bolt 4-12% Bis-Tris gel (Life Technologies). An anti-FLAG antibody (Sigma-Aldrich F1804) and an anti-mouse 800CW IRDye (LI-COR) were used to visualize the gel on an Odyssey IR imager.

[1] = +4-HT 2 hrs, then media replaced, Table 2
[2] = +4-HT 4 hrs, then media replaced, Table 2
[3] = +4-HT 8 hrs, then media replaced, Table 2
[4] = +4-HT 12 hrs, then media replaced, Table 2
[5] = +4-HT 24 hrs, then media replaced, Table 2
[6] = +4-HT (1 μM, added 12 h after transfection), five days after transfection, Table 1
[7] = −4-HT, five days after transfection, Table 1

| Substance | Cells without GFP (%) (genomic EGFP locus; [1]) | Cells without GFP (%) (genomic EGFP locus; [2]) | Cells without GFP (%) (genomic EGFP locus; [3]) | Cells without GFP (%) (genomic EGFP locus; [4]) | Cells without GFP (%) (genomic EGFP locus; [5]) | Cells without GFP (%) (genomic EGFP locus; [6]) | Loss of GFP expression / nuclease activity, in words (genomic EGFP locus; listed as 5219) | Cells without GFP (%) (genomic EGFP locus; [7]) | Cells without GFP (%) (genomic EGFP locus; −4-HT, time course, Table 2) | Genomic modification of target site (T7E1 gel) (CLTA genomic site; +4-HT (1 μM)) | Genomic modification of target site (T7E1 gel) (CLTA genomic site; absence of 4-HT) | Genomic modification of target site (T7E1 gel) (EMX genomic site; +4-HT (1 μM)) | Genomic modification of target site (T7E1 gel) (EMX genomic site; absence of 4-HT) | Genomic modification of target site (T7E1 gel) (VEGF genomic site; +4-HT (1 μM)) | Genomic modification of target site (T7E1 gel) (VEGF genomic site; absence of 4-HT) | Spliced product (Western blot) (HEK293-GFP stable cells; absence of 4-HT) | Spliced product (Western blot) (HEK293-GFP stable cells; earliest assayed time point (4 h) following 4-HT treatment (1 μM)) | Loss of GFP expression / nuclease activity, in words (genomic EGFP locus; listed as C574) |
| --- | --- | --- | --- | --- | --- | --- | --- | --- | --- | --- | --- | --- | --- | --- | --- | --- | --- | --- |
| intein(Ser219)-Cas9: Cas9 with 37R3-2 intein replacing Ser219 (SEQ ID NO: 30) | 17.25 | 17.07 | 15.12 | 15.28 | 24.39 | 23.98 | 4-HT-dependent loss of GFP expression and high activity in the presence of 4-HT and low activity in the absence of 4-HT | 6.53 | 3.92 | comparable to modification by wild-type Cas9 | some background cleavage | comparable to modification by wild-type Cas9 | minimal or no modification | comparable to modification by wild-type Cas9 | minimal or no modification | no spliced product was detected | presence of spliced product |  |
| intein(Cys574)-Cas9: Cas9 with 37R3-2 intein replacing Cys574 (SEQ ID NO: 33) | 14.57 | 13.11 | 16.91 | 16.10 | 14.52 | 21.44 |  | 5.74 | 2.91 | comparable to modification by wild-type Cas9 | some background cleavage | comparable to modification by wild-type Cas9 | minimal or no modification | comparable to modification by wild-type Cas9 | minimal or no modification |  |  | 4-HT-dependent loss of GFP expression and high activity in the presence of 4-HT and low activity in the absence of 4-HT |
